Results published in patent US20070275935A1, “Estratriene Derivatives” (priority 2003, published 2007).

Experiments:
Pulmonary fibroblasts = test: bFGF-induced proliferation of human pulmonary fibroblasts; assay type: cell-based; settings: for pFib - bFGF: inhibition of bFGF (300 pM)-induced proliferation, mean and SEM, minimum 3 experiments, 1 μM, * not defined; for effect on bFGF-induced increase in pulmonary fibroblast cell number, in words: concentration range of 1 to 1000 nM, bFGF 300 pM, 48 h
Procedure: Samples of parenchyma from human lung transplant recipients were dissected away from the pleura, chopped into fragments of less than 1 mm^2 and allowed to adhere to plastic culture dishes in a minimal volume of DMEM containing serum (10%) and antibiotics (as used for HASM culture). After the tissue fragments had adhered to the base of the dish additional medium was added. Medium was changed twice weekly until an explant culture formed, at which time the tissue fragments were removed and the cells were passaged in a 1:3 split ratio by exposure to trypsin weekly to produce pulmonary fibroblast cultures.
Pulmonary fibroblasts were cultured in DMEM, serum-deprived for 24 h, in the presence or absence of the test compounds, and then stimulated with 300 pM bFGF for 48 h before harvest and counting of viable cells. An increase pulmonary fibroblast cell number was prevented by 4NOM over the concentration range of 1 to 1000 nM.
A range of the disclosed compounds was subsequently examined using the above assay system, and the results are summarized in Column E of Table 4. […] The proliferation of parenchymal fibroblasts is important in the development of pulmonary fibrosis.

Estrogen Receptor (ER) = target: T1, Estrogen Receptor (ER) (Rattus norvegicus, UniProt P06211); test: Estrogen receptor binding assay, 3H-estradiol displacement from rat uterine cytosol; settings: for ER affinity (pIC50 ^3H-E2 displacement): rat uterine cytosol, 0.2 nM [3H]-E2, tested up to 10 μM; for displacement of ^3H-Estradiol, in words: concentrations up to 10 μM; for IC50: read-out: ER-RLB pIC50 (converted)
T1 construct: using rat uterine cytosol as a source of ER; from tissue; host or cells: rat uterus, cytosol fraction (30000 x g supernatant)
T1 sequence (P06211 1-600): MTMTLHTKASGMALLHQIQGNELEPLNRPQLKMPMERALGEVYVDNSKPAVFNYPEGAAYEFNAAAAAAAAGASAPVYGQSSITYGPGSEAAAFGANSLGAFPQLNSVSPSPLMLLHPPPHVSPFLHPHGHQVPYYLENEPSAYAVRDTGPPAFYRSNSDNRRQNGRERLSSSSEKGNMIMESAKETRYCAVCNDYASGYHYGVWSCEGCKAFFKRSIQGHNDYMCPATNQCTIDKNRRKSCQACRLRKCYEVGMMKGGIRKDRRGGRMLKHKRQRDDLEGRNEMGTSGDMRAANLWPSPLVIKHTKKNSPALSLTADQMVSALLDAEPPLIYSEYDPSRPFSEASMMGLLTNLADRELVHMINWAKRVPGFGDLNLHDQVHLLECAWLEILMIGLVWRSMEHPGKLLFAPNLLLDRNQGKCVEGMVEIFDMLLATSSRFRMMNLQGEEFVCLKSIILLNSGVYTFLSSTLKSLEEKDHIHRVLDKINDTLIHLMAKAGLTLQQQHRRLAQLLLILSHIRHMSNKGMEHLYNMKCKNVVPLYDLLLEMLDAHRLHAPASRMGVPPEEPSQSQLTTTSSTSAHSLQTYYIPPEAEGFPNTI
Method in brief: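 Cytosol from Brown Norway rat uteri, homogenised in 10 mM Tris pH 7.4 with EDTA, glycerol and PMSF, spun at 30000×g, diluted to about 1 mg/ml protein.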

[1] = 3H-estradiol displacement, cytosolic preparations of rat uterus, pIC50 of 4.00 = inactive

Structure (SMILES) | pFib - bFGF (Pulmonary fibroblasts) | ER affinity (pIC50 ^3H-E2 displacement) (Estrogen Receptor (ER)) | effect on bFGF-induced increase in pulmonary fibroblast cell number, in words (Pulmonary fibroblasts) | displacement of ^3H-Estradiol, in words (Estrogen Receptor (ER)) | pFib - bFGF (Pulmonary fibroblasts; listed as 4NOM) | ER-RLB pIC50 (Estrogen Receptor (ER); [1]) | IC50 (Estrogen Receptor (ER); [1])
COc1cc2c(cc1O)CC[C@@H]1[C@@H]2CC[C@]2(C)[C@@H](O)CC[C@@H]12 [2-methoxyestradiol, reference compound] | 62 ± 20* | 6.8 |  |  |  |  | 
COc1cc2c(cc1O)C(=NOCc1ccc([N+](=O)[O-])cc1)C[C@@H]1[C@@H]2CC[C@]2(C)[C@@H](O)CC[C@@H]12 [CP-DM-2-11-7, 2-methoxy-6-(4-nitrobenzyloxy)iminoestradiol] | 63 ± 15* | <5.0 | significantly reduced the proliferative response | little or no detectable displacement |  |  | 
COc1cc2c(cc1O)C(=NOCc1ccc([N+](=O)[O-])cc1)C[C@@H]1[C@@H]2CC[C@]2(C)C(=NO)CC[C@@H]12 [CP-DM-3-91, 2-methoxy-6-(4-nitrobenzyloxy)iminoestrone-17-oxime] | 49 ± 14* | <5.0 | prevented | little or no detectable displacement | significant inhibitory activity | 4.26 | 
C[C@]12CC[C@@H]3c4ccc(O)cc4CC[C@H]3[C@@H]1CC/C2=N\OCc1cccc([N+](=O)[O-])c1 [CP-DM-3-102, estrone-17-(3-nitrobenzyl)oxime] | 96 ± 4* |  |  |  |  |  | 2400 nM
COc1cc2c(cc1O)/C(=N/OCc1cc(F)cc(F)c1)C[C@@H]1[C@@H]2CC[C@]2(C)[C@@H](O)CC[C@@H]12 [CP-DM-4-35, 6-(3,5-difluorobenzyloxy)imino-2-methoxyestradiol] | 22 ± 14 |  |  |  |  |  | 5250 nM
COc1cc2c(cc1O)/C(=N/OCc1ccc(SC(F)(F)F)cc1)C[C@@H]1[C@@H]2CC[C@]2(C)[C@@H](O)CC[C@@H]12 [CP-DM-4-65, 2-methoxy-6-(4-trifluoromethylthiobenzyloxy)iminoestradiol] | 32 ± 23 |  |  |  |  |  | 646 nM
